Reference: publication PMC9131456, “Structure-Based Discovery of Lipoteichoic Acid Synthase Inhibitors” (Journal of Chemical Information and Modeling, 2022)
Blank lines part the entries; values can stand above or below the compound they belong to.

Key:
[1] = test system: S. aureus (strain Newman); assay: Antimicrobial microdilution broth assay (growth inhibition); type: cell-based; conditions: S. aureus strain Newman growth, OD600nm after 20 h at 37 °C, MH2 broth, mean ± s.e.m., n = 3
Method: All the compounds tested in this study were dissolved in dimethyl sulfoxide (DMSO) at an initial stock concentration of 20 mM and stored at −20 °C. These compounds were tested for their antimicrobial activity using the microdilution broth method[66] following the protocol described by Richter et al.[30] Briefly, overnight cultures of S. aureus (strain Newman) grown at 37 °C in cation-adjusted Mueller Hinton II (MH2) broth were adjusted to an OD600nm of 0.6 before back-diluted with a factor of 1:2000 with the same broth. After that, 200 μL of the diluted bacterial culture were dispensed into each well of 96-well plates supplemented with the compounds to the desired concentrations. The plates were then sealed with a moisture membrane barrier and incubated statically for 20 h at 37 °C. After that, the OD600nm values of the cultures in each well were measured using a CLARIOstar microplate reader (BMG Labtech). The procedures for the potentiation assays were by large the same as described above with some variations. In such assays, MRSA strain COL was grown in the 96-well plates supplemented with different concentrations of compound 9 with methicillin, carbenicillin, or polymyxin B in a checkerboard format. Their synergistic effects were quantified by OD600nm measurements using a CLARIOstar microplate reader (BMG Labtech).

[2] = test system: LTA production in S. aureus (strain RN4220); assay: Western blot (immunoblotting) of LTA in S. aureus cell extracts; type: cell-based; conditions: for LTA production: Western blot of S. aureus cell extracts, 10 μM in Figure S14, 100 μM for compound 8
Method: The procedures of LTA detection using Western Blot had previously been reported by Gründling et al.[52] To determine the effect of the compounds on LTA production, 10 mL cultures of S. aureus (strain RN4220) in MH2 broth were incubated in an orbital shaker at 37 °C with either the compounds or DMSO. When the control cultures had reached an OD600nm ∼ 1, the bacteria were pelleted and the OD600nm of the cultures normalized by resuspension with the appropriate amount of MH2 broth. Subsequently, 1 mL from each cultures was mixed with 0.5 mL of 0.1 mm glass beads, and the bacteria were lyzed by vortexing at 4 °C for 45 min. After lysis, glass beads were removed by centrifugation at 200g, and the supernatants were transferred to a new tube. The membrane-associated LTA from each culture were pelleted by an additional centrifugation step of the supernatant at 16,000g for 15 min before resuspension in 30 μL of 2× SDS. The samples were boiled at 80 °C for 20 min, and the solubilized fractions were loaded onto 15% SDS-polyacrylamide gels prior to electrophoresis at 120 V for 1.5 h. The LTA on the gels were electrotransferred onto FL-immobilon PVDF membranes at 25 V for another 1.5 h. After the electrotransfer, the membranes were blocked with 5% skimmed milk for 1 h and incubated with the antimouse LTA antibody (clone G43J, Thermo Fisher Scientific; 1:1000 dilution) overnight at 4 °C. After washing, the membranes were incubated with antimouse IRDye 680RD (1:10,000 dilution) for 1 h, washed, and visualized using the Odyssey CLx Imaging System.

IsaA = assay: SDS-PAGE and LC/MS-MS analysis of the lysate of treated S. aureus; type: cell-based; conditions: S. aureus treated with 100 μM compound, SDS-PAGE
HEK293 cells = assay: LDH release cytotoxicity assay; type: cell-based, human; conditions: 200 μM compound, 24 h
Method: The human embryonic kidney (HEK293) cells were maintained in Dulbecco’s modified Eagle medium (DMEM) supplemented with 10% fetal bovine serum and 100 units/mL of penicillin–streptomycin. For the cell viability assays, cells were seeded onto 96-well plates at a density of 4 × 10^4 cells/well and grown at 37 °C at 5% CO2. After incubating the cells for 24 h, the culture media were replaced with fresh DMEM supplemented with 200 μM of the compounds 1771, compound 4, compound 8, and compound 9 and incubated further for an additional 24 h. The cytotoxicity of these drugs was measured using the LDH Cytotoxicity Assay Kit according to the manufacturer’s instruction (Thermo Scientific). The absorbance at 490 nm was measured with a CLARIOstar microplate reader (BMG Labtech), and the reference wavelength was set at 630 nm.

LTA synthase (LtaS) = test system: LTA synthase (LtaS); parameters: method as in PMID 23401520; conditions: by inhibiting LtaS; cited from earlier work
His416Ala eLtaS = target: T1, His416Ala eLtaS (Staphylococcus aureus, UniProt Q2G093, H416A); assay: Isothermal titration calorimetry, His416Ala eLtaS; type: binding, S. aureus; conditions: ITC, compared with wild-type eLtaS
T1 construct: LtaS is a transmembrane protein with a large extracellular catalytic domain (denoted as eLtaS); His-tag; made in house; host or cells: E. coli Rosetta 2 (DE3), pET19m
From the text: (§1) The plasmid [Rosetta pProEX-eLtaS] from E coli strain ANG571 was extracted using the QIAprep Spin Miniprep Kit. Meanwhile, the genes encoding the mutant LtaS with mutations His416Ala, His347Ala, and Arg356Ala were extracted from the strains ANG1115, ANG1175, and ANG1178, respectively, using the QIAamp DNA Mini Kit. These genes were amplified using PCR, cut with NdeI/BamHI, and ligated into a pET19m transformed into E. coli Rosetta 2 (DE3) strain.
(§2) Each of the eLtaS proteins were purified from 6 L of E. coli cultures that were grown with aeration in LB medium supplemented with 200 μg/mL of carbenicillin and 34 μg/mL of chloramphenicol at 37 °C. When the cultures reached an OD600nm of about 0.6, protein expression was induced with 1 mM IPTG final concentration at 21 °C overnight. […] All four eLtaS proteins were subjected to circular dichroism analysis, and their exact masses were determined using MS.
(§3) The thawed eLtaS proteins were dialyzed using D-Tube Dialyzer Mini (EMD Millipore) in 20 mM Trizma-HCl pH 7.5, 100 mM NaCl with Chelex 100 (Sigma-Aldrich) for 1.5 h twice on the same day prior to the ITC experiments. […] Data were first analyzed in NITPIC[69] for baseline calculations and then fit for thermodynamic parameters using the OneSite model in Origin 7.0 software.

His347Ala eLtaS = target: T2, His347Ala eLtaS (Staphylococcus aureus, UniProt Q2G093, H347A); assay: Isothermal titration calorimetry, His347Ala eLtaS; type: binding, S. aureus; conditions: ITC, compared with wild-type eLtaS
T2 construct: LtaS is a transmembrane protein with a large extracellular catalytic domain (denoted as eLtaS); His-tag; made in house; host or cells: E. coli Rosetta 2 (DE3), pET19m
From the text: as §1, §2, §3

wild-type eLtaS = target: T3, wild-type eLtaS (Staphylococcus aureus, UniProt Q2G093); assay: Isothermal titration calorimetry, wild-type eLtaS; type: binding, S. aureus; conditions: ITC, 25 °C, wild-type eLtaS titrated into 10 μM inhibitor
T3 construct: LtaS is a transmembrane protein with a large extracellular catalytic domain (denoted as eLtaS); His-tag; made in house; host or cells: E. coli (Rosetta; plasmid pProEX-eLtaS from strain ANG571)
Method: Each of the eLtaS proteins were purified from 6 L of E. coli cultures that were grown with aeration in LB medium supplemented with 200 μg/mL of carbenicillin and 34 μg/mL of chloramphenicol at 37 °C. When the cultures reached an OD600nm of about 0.6, protein expression was induced with 1 mM IPTG final concentration at 21 °C overnight. Later, the bacteria were harvested by centrifugation at 11,899g, and the bacterial pellets were resuspended with lysis buffer (50 mM Trizma-HCl, pH 7.5, 300 mM NaCl, 5% glycerol, 10 mM imidazole, 5 mM β-mercaptoethanol). The bacterial pellets were lyzed by three passages through a high-pressure emulsifier, and the lysates were centrifuged at 47,596g for 30 min at 4 °C. The resulting supernatants containing the His-tagged eLtaS proteins were filtered with a 0.22 μm filter before being loaded onto a 5 mL Ni-NTA column using an ÄKTApure protein purification system. The bound proteins were subsequently washed with lysis buffer, eluted using the elution buffer (50 mM Trizma-HCl, pH 7.5, 300 mM NaCl, 5% glycerol, and 300 mM imidazole), and dialyzed twice using the dialysis buffer [25 mM Trizma-HCl, pH 7.5, 100 mM NaCl, 10% glycerol, 1 mM ethylenediaminetetraacetic acid (EDTA)]. After dialysis, protein purity was confirmed to be >90% using SDS-PAGE. Proteins were then concentrated, snap-frozen in liquid N2, and stored at −80 °C prior to usage. All four eLtaS proteins were subjected to circular dichroism analysis, and their exact masses were determined using MS.
The thawed eLtaS proteins were dialyzed using D-Tube Dialyzer Mini (EMD Millipore) in 20 mM Trizma-HCl pH 7.5, 100 mM NaCl with Chelex 100 (Sigma-Aldrich) for 1.5 h twice on the same day prior to the ITC experiments. After dialysis, the eLtaS proteins were centrifuged at 20,000g at 10 °C for 10 min. The supernatants were transferred to new microcentrifuge tubes and diluted to 100 μM using the same buffer as above with an addition of 0.1% (v/v) DMSO. Meanwhile, the eLtaS inhibitors were diluted to 10 μM using the same buffer and maintaining 0.1% (v/v) DMSO. The eLtaS proteins were titrated into the main cell containing the inhibitors using a VP-ITC at 25 °C. The injection parameters were set as follows: a reference power of 15 μcal/s, an initial injection of 3 μL over a duration of 3.6 s, and then subsequent injections of 10 μL over a duration of 12 s. All injections were spaced with 240 s with a filter period of 2 s. Data were first analyzed in NITPIC[69] for baseline calculations and then fit for thermodynamic parameters using the OneSite model in Origin 7.0 software.

[3] = test system: S. aureus (strain Newman); assay: Non-lethal S. aureus lung infection mouse model; type: in vivo, BALB/c female mice; conditions: 300 μg intranasally, infected BALB/c mice
From the text: All in vivo experiments were done at the University of Liverpool under the UK Animals (Scientific Procedures) Act 1986 guidelines. The protocols were approved by the UK Home Office and by the University of Liverpool Animal Welfare and Ethics Committee. Six to eight week old BALB/c female mice (Charles River, UK) were used in the study after being left to acclimatize for a minimum of 7 days prior to experimentation. Mice were intranasally infected with 5 × 10^7 CFU of the S. aureus (strain Newman) in 50 μL of sterile phosphate-buffered saline (PBS). The bacterial dose was prepared by incubating 50 μL of an overnight culture in brain heart infusion (BHI) broth (Oxoid, Thermo Fisher Scientific, UK) into 5 mL of fresh BHI. Once the culture reached an OD600 = 2–3, the bacterial numbers were adjusted to the desired dose using sterile PBS. Three hours postinfection, mice were intranasally treated with either 50 μL of sterile PBS (control) or with 300 μg of compounds 1771 and compound 4 dissolved in 50 μL of sterile PBS. The final DMSO concentration was 5%, and the PBS control also contained 5% DMSO. Mice were culled 24 h postinfection; lungs were collected, homogenized, and serially diluted to determine CFU counts.[70] Significant differences were determined using the unpaired two-tailed Student t-test (p = 0.0013).

[4] = parameters: method as in PMID 23401520; conditions: lethal sepsis mouse model; cited from earlier work
Arg356Ala eLtaS = target: T4, Arg356Ala eLtaS (Staphylococcus aureus, UniProt Q2G093, R356A); assay: Isothermal titration calorimetry, Arg356Ala eLtaS; type: binding, S. aureus; conditions: ITC, compared with wild-type eLtaS
T4 construct: LtaS is a transmembrane protein with a large extracellular catalytic domain (denoted as eLtaS); His-tag; made in house; host or cells: E. coli Rosetta 2 (DE3), pET19m
From the text: as §1, §2, §3

[5] = Staphylococcus aureus, NEWMAN, 20 h

IC50 [1]: 12.3 ± 0.38 µM
Compound: COc1ccccc1Nc1ncccc1C(=O)OCC(=O)Nc1nnc(-c2ccccc2)o1 [Compound 2]

Compound: Cc1csc(SCc2ccccc2C(=O)OCC(=O)Nc2nnc(-c3ccccc3)o2)n1 [Compound 3]
LTA production [2]: able to reduce LTA production | IC50 [1]: 13.4 ± 0.35 µM

Compound: O=C(COC(=O)CSC(c1ccccc1)c1ccccc1)Nc1nnc(-c2ccccc2)o1 [Compound 5]
IC50 [1]: 17.5 ± 1.08 µM

Compound: Cc1cccc(COc2ccccc2C(=O)OCC(=O)Nc2nnc(-c3ccccc3)o2)c1 [Compound 6]
LTA production [2]: able to reduce LTA production | IC50 [1]: 11.1 ± 0.49 µM

IC50 [1]: 12.4 ± 1.9 µM
Compound: O=C(COC(=O)/C=C/c1ccc2ccccc2n1)Nc1nnc(-c2ccccc2)o1 [Compound 7]

Compound: O=C(Nc1ccc(Oc2ccc(NC(=O)Nc3ccc([N+](=O)[O-])cc3)cc2)cc1)Nc1ccc([N+](=O)[O-])cc1 [Compound 8]
LTA production [2]: did not decrease LTA production | electrophoretic mobility of the LTA extracted from treated S. aureus ([2]; Western blot, 100 μM compound): decreased electrophoretic mobility and higher heterogeneity | protein upregulation in the lysate (IsaA, a peptidoglycan hydrolase) (IsaA): upregulated a 24 kDa protein | cytotoxicity (LDH release) (HEK293 cells): cytotoxic | IC50 [1]: 29.4 µM | IC50 [1, 5]: 29.4 µM

Compound: O=C(COC(=O)Cc1coc2ccc3ccccc3c12)Nc1nnc(-c2ccccc2)o1 [compound 1771]
LTA synthesis (LTA synthase (LtaS)): able to suppress LTA synthesis | binding affinity to the His416Ala eLtaS variant (His416Ala eLtaS): slight increase in binding affinities | binding to the His347Ala eLtaS variant (His347Ala eLtaS): abolished | Kd (wild-type eLtaS): 0.457 ± 0.0071 µM | tolerability in mice [3]: did not tolerate the latter well | in vivo stability [4]: lost activity over time due to in vivo instability | survival of infected mice [4]: temporarily prolong the survival of the infected mice | binding affinity to the Arg356Ala eLtaS variant (Arg356Ala eLtaS): slight increase in binding affinities | IC50 [1]: 14.9 ± 1.59 µM | IC50 [1, 5]: 14.5 µM
